This is an account of results in ChEMBL document CHEMBL3621145, “Synthesis of imidazothiadiazolebenzimidazole conjugates as mitochondrial apoptosis inducers” (Medchemcomm, 2014).

Activity calls are given as the source filed them. The rule behind the calls is not given here.

In assay [1] the test system is ME-180. The experiment in a line: Cell cycle arrest in human ME180 cells assessed as accumulation at G1 phase at 1 uM after 48 hrs by FACS analysis (reference value: 59.9%). The assay is classed as functional.
Assay [2] concerns A-375. Nature of the assay: Anticancer activity against human A375 cells by MTT assay. The format is functional, cell-based. Background: Tetrazolium assays rely on reduction of a dye to a coloured formazan, in cell work by metabolically active cells.
Assay [3] relates to ME-180. Nature of the assay: Anticancer activity against human ME180 cells by MTT assay. The assay is classed as functional, cell-based.
Assay [4] has as its system ME-180. The experiment in a line: Induction of apoptosis in human ME180 cells assessed as early apoptotic cells at 1 uM for 24 hrs by annexin V/PI staining based flow cytometry (reference value: 0.2%). The format is functional.
Assay [5] deals with ME-180. The experiment in a line: Induction of apoptosis in human ME180 cells assessed as late apoptotic cells at 1 uM for 24 hrs by annexin V/PI staining based flow cytometry (reference value: 5%). The assay is classed as functional.
The test system of assay [6] is ME-180. Nature of the assay: Cell cycle arrest in human ME180 cells assessed as accumulation at G2/M phase at <1 uM. The assay is classed as functional, cell-based.
For assay [7], the system named is ME-180. The experiment in a line: Induction of apoptosis in human ME180 cells assessed as viable cells at 1 uM for 24 hrs by annexin V/PI staining based flow cytometry (reference value: 83.1%). The assay is classed as functional. As to conditions: ME-180, 24 h, read-out: Activity. Background: In flow cytometry, cells or beads pass a laser one at a time.
The test system of assay [8] is A549. Nature of the assay: Anticancer activity against human A549 cells by MTT assay. The assay is classed as functional, cell-based.
Assay [9] concerns ME-180. The experiment in a line: Cell cycle arrest in human ME180 cells assessed as accumulation at G2/M phase at 1 uM after 48 hrs by FACS analysis (reference value: 13.2%). The format is functional.
Assay [10] concerns ME-180. The experiment in a line: Induction of apoptosis in human ME180 cells assessed as necrotic cells at 1 uM for 24 hrs by annexin V/PI staining based flow cytometry (reference value: 11.7%). The assay is classed as functional.
Assay [11] deals with ME-180. Nature of the assay: Cell cycle arrest in human ME180 cells assessed as accumulation at SubG1 phase at 1 uM after 48 hrs by FACS analysis (reference value: 7.0%). The format is functional.
Assay [12] relates to ME-180. The experiment in a line: Induction to apoptosis in human ME180 cells assessed as increase in caspase-3 activity at 1 uM for 48 hrs relative to control. The format is functional.
The subject of assay [13] is DU-145. Nature of the assay: Anticancer activity against human DU145 cells by MTT assay. The assay is classed as functional, cell-based.
For assay [14], the system named is ME-180. The experiment in a line: Cell cycle arrest in human ME180 cells assessed as accumulation at S phase at 1 uM after 48 hrs by FACS analysis (reference value: 19.3%). The assay is classed as functional.
Assay [15] concerns ME-180. Nature of the assay: Induction of apoptosis in human ME180 cells assessed as DNA fragmentation at 1 uM after 48 hrs. The assay is classed as functional, cell-based.
For assay [16], the system named is ME-180. Nature of the assay: Cell cycle arrest in human ME180 cells assessed as accumulation at S phase at 0.5 uM after 48 hrs by FACS analysis (reference value: 19.3%). The format is functional.
Assay [17] has as its system ME-180. Nature of the assay: Induction of apoptosis in human ME180 cells assessed as nuclear fragmentation at 1 uM for 24 hrs by Hoechst staining analysis. The assay is classed as functional, cell-based.
Assay [18] concerns ME-180. The experiment in a line: Cell cycle arrest in human ME180 cells assessed as accumulation at G1 phase at 0.5 uM after 48 hrs by FACS analysis (reference value: 59.9%). The assay is classed as functional.
The test system of assay [19] is ME-180. The experiment in a line: Induction of apoptosis in human ME180 cells assessed as mitochondrial membrane depolarization at 1 uM for 24 hrs by using JC-1 dye. The format is functional, cell-based.
The test system of assay [20] is ME-180. The experiment in a line: Induction of apoptosis in human ME180 cells assessed as presence of apoptotic bodies at 1 uM for 24 hrs by Hoechst staining analysis. The assay is classed as functional, cell-based.
The subject of assay [21] is ME-180. The experiment in a line: Cell cycle arrest in human ME180 cells assessed as accumulation at G2/M phase at 0.5 uM after 48 hrs by FACS analysis (reference value: 13.2%). The assay is classed as functional.
Assay [22] relates to ME-180. Nature of the assay: Induction of apoptosis in human ME180 cells assessed as cytoplasmic condensation at 1 uM for 24 hrs by Hoechst staining analysis. The format is functional, cell-based.
The test system of assay [23] is ME-180. The experiment in a line: Cell cycle arrest in human ME180 cells assessed as accumulation at SubG1 phase at 0.5 uM after 48 hrs by FACS analysis (reference value: 7.0%). The assay is classed as functional.

As usually defined, the IC50 is the concentration at which inhibition is half-maximal. Low values mean greater potency in that assay, high ones weaker potency in that assay. As to `COc1cccc2c1C(=O)c1c(O)c3c(c(O)c1C2=O)C[C@@](O)(C(=O)CO)C[C@@H]3O[C@H]1C[C@H](N)[C@H](O)[C@H](C)O1` [DOXORUBICIN], the Activity is recorded as 64.8% in assay [1]; 0.7% in assay [4]; 15.1% in assay [5]; 10.9% in [9]; 16.8% in assay [10]; 7.7% in assay [11]. The Activity in assay [14] is recorded as 16.1%. For the same molecule, the IC50 in [2] worked out at 1.2 µM; in [3], 0.5 µM; in assay [8] it was 1.1 µM; in assay [13] it was 2.4 µM. The result in assay [6] and in assay [15] was Active. In [7], the viability at 1 µM is 67.5%. For the same molecule, the “fold change (FC)” value in [12] is 3.

`COc1ccc(-c2nc3sc(C)nn3c2-c2nc3cc(C)c(C)cc3[nH]2)cc1`: the IC50 came to 12.5 µM in assay [2], 12.3 µM in assay [3], 16.5 µM in assay [8] and 23.3 µM in assay [13].

In the case of `Cc1nn2c(-c3nc4cc(Cl)c(Cl)cc4[nH]3)c(-c3ccccc3)nc2s1`, the Activity in assay [1] is 72.4%; in assay [16], 15.7%; in [4] it was 1%; in assay [18] it was 68.1%; in [5] it was 22.6%; in assay [9], 1.6%. The Activity in assay [21] came to 10.4%; in assay [10], 17.7%; in assay [11], 16.3%; in assay [23], 5.4%; in assay [14], 9.3%. Also, the half-maximal inhibitory concentration (IC50) in [2] is 2.8 µM; in [3], 0.5 µM; in assay [8] it was 13.6 µM; in assay [13] it was 19.1 µM. The outcome in assay [17], in assay [19], in assay [20], in assay [22] and in [15] was Active. The viability at 1 µM in assay [7] turned out to be 58.7%. Besides, in assay [12], the “fold change (FC)” value was 3.

Consider `Cc1nn2c(-c3nc4cc(C(F)(F)F)ccc4[nH]3)c(-c3ccccc3)nc2s1`, for which the IC50 stood at 5.2 µM in [2], 3.9 µM in [3], 13.6 µM in assay [8] and 19.6 µM in [13].

On to `Cc1ccc2[nH]c(-c3c(-c4ccc(F)cc4)nc4sc(C)nn34)nc2c1`, for which the IC50 in assay [2] turned out to be 7.7 µM; in [3], 6.6 µM; in assay [8], 11.7 µM; in assay [13], 19.9 µM.

Take `Cc1nn2c(-c3nc4cc(O)ccc4[nH]3)c(-c3ccccc3)nc2s1`: the IC50 in assay [2] amounted to 19.1 µM; in [3] it was 16.4 µM; in [8], 19.4 µM; in assay [13], 20.6 µM.

Turning to `Cc1ccc(-c2nc3sc(C)nn3c2-c2nc3cc(C)ccc3[nH]2)cc1`, the IC50 is 6.1 µM in assay [2], 4.5 µM in assay [3], 9.8 µM in assay [8] and 10.7 µM in assay [13].

For `Cc1ccc(-c2nc3sc(C)nn3c2-c2nc3cc(Cl)c(F)cc3[nH]2)cc1`, the Activity in assay [1] is reported as 75.7%; in [16], 12.3%; in assay [4] it was 0.8%; in assay [18], 66.6%; in [5] it was 16.5%; in [9], 2.3%. Besides, the Activity turned out to be 6.7% in assay [21]; 9.6% in assay [10]; 11.6% in assay [11]; 14.1% in assay [23]; 10.1% in assay [14]. Further, the IC50 in assay [2] came to 1.04 µM; in [3], 0.7 µM; in assay [8] it was 10.3 µM; in [13], 11.8 µM. The result in [17], in assay [19], in assay [20], in assay [22] and in [15] was Active. In assay [7], the viability at 1 µM came out at 73.1%. In addition, the “fold change (FC)” value in assay [12] stood at 3.

Take `Cc1nn2c(-c3nc4cc(C(F)(F)F)ccc4[nH]3)c(-c3ccc(F)cc3)nc2s1`: the IC50 in assay [2] turned out to be 7.3 µM; in assay [3] it was 5.8 µM; in [8], 12.7 µM; in [13] it was 15.8 µM.

On to `Cc1nn2c(-c3nc4cc(C)c(C)cc4[nH]3)c(-c3ccc(F)cc3)nc2s1`, for which the IC50 is 7.6 µM in [2], 6.1 µM in assay [3], greater than 30 µM in assay [8] and greater than 30 µM in [13].
